Assay results from ChEMBL document CHEMBL1201862, “PubChem BioAssay data set” (2004).
Calls of active or inactive are those of the source.

What was measured:
[1] = target: Endoplasmic reticulum aminopeptidase 1 (Homo sapiens, UniProt Q9NZ08); experiment: inhibition of human ERAP1 enzyme activity – biochemical, cherry-pick, set 2, plate reader, dose response (AID 743314)
[2] = NIH-3T3 fibroblast cytotoxicity, dose response, cytotoxicity control, cell-based, fluorescence, Alamar Blue, secondary assay (AID 2327); assay type: functional;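 also: NIH-3T3 mouse fibroblasts cultured with fluconazole at 8 µg/mL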
[3] = test system: Streptococcus sp. 'group A'; experiment: Streptococcus pyogenes SK(-)GAS viability under kanamycin – luminescence, BacTiterGlo, confirmation, counter-screen for streptokinase expression inhibitor project, dose response (AID 1900); assay type: functional, organism-based
[4] = target: T1, Streptokinase A (Streptococcus pyogenes serotype M1, UniProt P10520); experiment: viability-normalized secreted streptokinase activity reduction – plasminogen activation absorbance, OD405, dose response (AID 1914); assay type: functional, Streptococcus pyogenes M1 GAS;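 also: secreted streptokinase activity via plasminogen activation per viability signal from cell pellet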
T1 sequence (P10520 whole entry): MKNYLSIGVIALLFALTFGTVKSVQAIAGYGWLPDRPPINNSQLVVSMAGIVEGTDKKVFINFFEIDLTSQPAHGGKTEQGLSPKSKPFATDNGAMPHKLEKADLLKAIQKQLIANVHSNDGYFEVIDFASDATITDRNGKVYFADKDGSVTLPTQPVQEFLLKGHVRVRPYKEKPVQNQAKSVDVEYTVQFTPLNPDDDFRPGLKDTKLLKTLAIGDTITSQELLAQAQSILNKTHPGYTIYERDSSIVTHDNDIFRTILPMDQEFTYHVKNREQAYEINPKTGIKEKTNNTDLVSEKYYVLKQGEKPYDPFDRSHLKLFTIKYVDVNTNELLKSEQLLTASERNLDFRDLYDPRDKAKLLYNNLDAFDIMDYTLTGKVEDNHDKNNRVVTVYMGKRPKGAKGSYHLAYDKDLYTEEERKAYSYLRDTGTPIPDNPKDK

[5] = fluconazole-exposed Candida albicans growth modulators – fluorescence, retest, confirmation (AID 2467); assay type: functional, cell-based
[6] = test system: Streptococcus; experiment: GAS UMAA2166 growth inhibition – luminescence, BacTiterGlo, counter-screen for streptokinase expression inhibitor project, dose response (AID 1915); assay type: functional, organism-based;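 also: potency for reduction of bacterial viability or growth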
[7] = target: T2, Probable nicotinate-nucleotide adenylyltransferase (Staphylococcus aureus (strain N315), UniProt P65502); assay type: functional, Staphylococcus aureus subsp. aureus N315;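 as to IC50 Mean: confirmatory dose-response retesting of NadD inhibitor hits first found in an ultra-high-throughput screen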
[8] = target: T2, Probable nicotinate-nucleotide adenylyltransferase; assay type: functional, Staphylococcus aureus subsp. aureus N315; details: read-out: IC50_Mean
[9] = target: Disintegrin and metalloproteinase domain-containing protein 17 (Homo sapiens, UniProt P78536); experiment: inhibition of ADAM17 substrate cleavage – biochemical, quenched FRET substrate, counter-screen for ADAM10 exosite inhibitor project, dose response (AID 743253)
[10] = target: fMet-Leu-Phe receptor (Homo sapiens, UniProt P21462); experiment: formyl peptide receptor binders – dose response (AID 519); assay type: functional
[11] = test system: H9c2; experiment: cells; assay type: functional, cell-based; details: Rattus norvegicus, H9c2, Myocardium;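 also: confirmatory concentration-response retest of ultra-high-throughput screening hits for modulation of myocardial damage; cell death induced by hydrogen peroxide oxidative stress; compound pretreatment for 60 min then peroxide exposure for 2 h; potency is for protecting the cells against peroxide damage rather than for killing them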
[12] = target: Paired box protein Pax-8 (Homo sapiens, UniProt Q06710); experiment: PAX8 transcriptional activity inhibition in RMG-I – RMG-I cells, luciferase, cherry-pick, dose response (AID 687027); assay type: functional, cell-based;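 also: luciferase reporter driven by Pax8 target thyroperoxidase promoter measured by SteadyGlo luminescence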
[13] = general cell-killing toxicity readout – plate reader, dry powder samples, cytotoxicity control for PAX8 inhibitor project, dose response (AID 743021); assay type: functional, cell-based
[14] = target: T3, Oxysterols receptor LXR-beta (Homo sapiens, UniProt P55055); assay type: functional, cell-based;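 also: agonist activity at LXR measured by a cell-based luminescence readout across a dose range, run as a counterscreen for daf-12 agonists; HEK293 cells with Gal4-LXR fusion and GAL4-driven luciferase reporter; potency for activation of Gal4-LXR reporter so compounds are agonists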
T3 sequence (P55055 whole entry): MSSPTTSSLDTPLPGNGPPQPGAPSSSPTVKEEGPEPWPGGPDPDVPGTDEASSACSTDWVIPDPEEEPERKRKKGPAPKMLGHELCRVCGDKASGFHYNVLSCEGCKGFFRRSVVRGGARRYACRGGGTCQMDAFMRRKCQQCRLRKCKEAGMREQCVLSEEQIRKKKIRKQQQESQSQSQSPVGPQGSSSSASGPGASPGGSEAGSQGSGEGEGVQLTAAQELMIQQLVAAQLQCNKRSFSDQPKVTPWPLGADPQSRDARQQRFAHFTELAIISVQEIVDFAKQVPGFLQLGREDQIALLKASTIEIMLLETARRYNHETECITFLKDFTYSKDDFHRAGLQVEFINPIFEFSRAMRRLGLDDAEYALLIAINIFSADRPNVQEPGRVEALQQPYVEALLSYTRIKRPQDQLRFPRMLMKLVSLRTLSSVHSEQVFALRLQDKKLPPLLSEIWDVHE

T2 sequence (P65502 whole entry): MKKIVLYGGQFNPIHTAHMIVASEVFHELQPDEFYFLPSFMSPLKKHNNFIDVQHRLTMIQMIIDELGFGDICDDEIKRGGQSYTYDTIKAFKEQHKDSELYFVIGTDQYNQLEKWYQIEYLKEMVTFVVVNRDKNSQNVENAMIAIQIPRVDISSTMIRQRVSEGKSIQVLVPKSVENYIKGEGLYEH
Chain of fMet-Leu-Phe receptor (P21462 whole entry): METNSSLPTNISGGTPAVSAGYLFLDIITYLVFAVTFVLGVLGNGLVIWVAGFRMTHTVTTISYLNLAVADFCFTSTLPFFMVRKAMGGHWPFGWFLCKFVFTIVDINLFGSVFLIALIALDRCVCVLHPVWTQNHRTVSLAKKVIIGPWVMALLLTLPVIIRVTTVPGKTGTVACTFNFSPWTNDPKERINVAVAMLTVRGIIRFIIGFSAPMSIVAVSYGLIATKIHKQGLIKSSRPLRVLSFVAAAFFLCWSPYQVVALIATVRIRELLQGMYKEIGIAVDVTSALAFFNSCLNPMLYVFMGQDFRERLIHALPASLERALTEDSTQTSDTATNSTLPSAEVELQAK
Chain of Paired box protein Pax-8 (Q06710 whole entry): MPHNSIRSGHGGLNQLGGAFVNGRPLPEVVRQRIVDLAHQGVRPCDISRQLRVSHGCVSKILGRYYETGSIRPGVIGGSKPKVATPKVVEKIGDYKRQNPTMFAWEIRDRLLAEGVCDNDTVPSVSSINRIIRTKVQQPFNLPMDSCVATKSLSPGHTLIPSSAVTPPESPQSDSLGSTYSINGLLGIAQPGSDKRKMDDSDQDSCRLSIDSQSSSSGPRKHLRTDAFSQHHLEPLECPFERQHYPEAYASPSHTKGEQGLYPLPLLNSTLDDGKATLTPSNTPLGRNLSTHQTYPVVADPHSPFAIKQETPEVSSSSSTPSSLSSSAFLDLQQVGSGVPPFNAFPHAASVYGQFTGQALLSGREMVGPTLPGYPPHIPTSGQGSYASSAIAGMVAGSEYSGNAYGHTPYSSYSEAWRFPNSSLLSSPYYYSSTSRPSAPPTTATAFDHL
Chain of Disintegrin and metalloproteinase domain-containing protein 17 (P78536 whole entry, the tested form may be a part): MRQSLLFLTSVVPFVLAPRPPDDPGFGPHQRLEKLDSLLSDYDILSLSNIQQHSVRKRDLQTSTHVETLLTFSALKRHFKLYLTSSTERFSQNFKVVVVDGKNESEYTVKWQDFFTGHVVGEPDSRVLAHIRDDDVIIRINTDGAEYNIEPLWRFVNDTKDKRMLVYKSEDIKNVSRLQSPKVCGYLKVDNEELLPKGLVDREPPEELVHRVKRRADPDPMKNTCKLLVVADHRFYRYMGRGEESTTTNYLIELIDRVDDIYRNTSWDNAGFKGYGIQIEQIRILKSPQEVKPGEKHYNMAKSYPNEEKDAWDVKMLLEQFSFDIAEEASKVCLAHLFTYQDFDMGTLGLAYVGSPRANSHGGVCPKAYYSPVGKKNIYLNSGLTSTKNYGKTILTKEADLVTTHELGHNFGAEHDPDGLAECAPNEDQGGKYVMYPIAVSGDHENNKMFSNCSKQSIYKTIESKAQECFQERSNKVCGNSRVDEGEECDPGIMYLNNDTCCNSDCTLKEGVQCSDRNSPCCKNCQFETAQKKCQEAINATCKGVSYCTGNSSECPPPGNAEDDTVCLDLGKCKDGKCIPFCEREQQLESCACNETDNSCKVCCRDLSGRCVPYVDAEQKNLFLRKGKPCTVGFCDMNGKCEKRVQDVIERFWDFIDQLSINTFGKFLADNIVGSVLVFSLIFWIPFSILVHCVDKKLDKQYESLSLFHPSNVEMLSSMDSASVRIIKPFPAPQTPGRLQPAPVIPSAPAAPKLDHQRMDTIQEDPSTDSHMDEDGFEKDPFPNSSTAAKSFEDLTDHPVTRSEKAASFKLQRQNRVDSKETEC
Chain of Endoplasmic reticulum aminopeptidase 1 (Q9NZ08 whole entry): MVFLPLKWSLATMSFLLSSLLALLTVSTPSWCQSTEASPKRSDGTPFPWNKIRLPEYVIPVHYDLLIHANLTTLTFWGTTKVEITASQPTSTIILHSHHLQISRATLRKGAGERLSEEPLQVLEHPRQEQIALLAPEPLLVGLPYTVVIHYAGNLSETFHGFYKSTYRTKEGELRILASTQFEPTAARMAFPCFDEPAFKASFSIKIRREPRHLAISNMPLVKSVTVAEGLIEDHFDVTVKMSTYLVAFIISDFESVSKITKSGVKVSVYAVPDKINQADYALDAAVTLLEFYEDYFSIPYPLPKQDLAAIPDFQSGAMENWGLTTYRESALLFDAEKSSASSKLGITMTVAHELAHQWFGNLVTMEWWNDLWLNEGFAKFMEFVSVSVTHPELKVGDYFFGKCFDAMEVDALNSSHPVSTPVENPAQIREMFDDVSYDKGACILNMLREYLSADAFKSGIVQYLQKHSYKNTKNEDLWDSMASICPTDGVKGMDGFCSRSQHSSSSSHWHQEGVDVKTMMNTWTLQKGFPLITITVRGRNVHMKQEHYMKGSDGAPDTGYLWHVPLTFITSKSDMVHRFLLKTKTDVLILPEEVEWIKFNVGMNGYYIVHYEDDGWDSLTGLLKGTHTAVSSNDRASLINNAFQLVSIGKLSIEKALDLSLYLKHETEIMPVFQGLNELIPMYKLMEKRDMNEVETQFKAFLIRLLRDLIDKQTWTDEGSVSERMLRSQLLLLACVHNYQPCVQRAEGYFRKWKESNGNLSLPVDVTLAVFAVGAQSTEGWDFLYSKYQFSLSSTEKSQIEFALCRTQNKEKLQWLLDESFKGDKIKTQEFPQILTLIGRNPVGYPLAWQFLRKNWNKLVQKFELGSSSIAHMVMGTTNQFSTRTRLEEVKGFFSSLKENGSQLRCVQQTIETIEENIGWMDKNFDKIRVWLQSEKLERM

SMILES: COCC(=O)N1[C@@H]2Cn3c(ccc(/C=C/c4ccccc4)c3=O)[C@H]1[C@@H](C(=O)N1CCOCC1)[C@@H]2CO
- AC50 [1]: 6.74 µM (active)

SMILES: O=C(NNC(=O)c1cc(-c2ccc(Cl)cc2)nc2ccccc12)c1csc(N2CCOCC2)n1
- EC50 [2]: > 150 µM (inactive)
- EC50 [3]: 20 µM (active)
- EC50 [4]: > 150 µM (not active)
- EC50 [5]: 0.775 µM (active)
- EC50 [6]: 76.8 µM (active)
- IC50 [7]: 20.8 µM (active)
- IC50 [8]: 58 µM (active)
- IC50 [9]: > 69.5 µM (inactive)

SMILES: CC1(C)S[C@@H]2[C@H](NC(=O)C(C(=O)O)c3ccccc3)C(=O)N2[C@H]1C(=O)O (some centres undefined) [CARBENICILLIN DISODIUM]
- Ki [10]: > 66.7 µM (inactive)

SMILES: C=C1C(C)C2C(Cc3ccccc3)NC(=O)C23OC(=O)/C=C/C(O)CCCC(C)C/C=C/C3C1O (centres undefined)
- IC50 [11]: > 79 µM (inactive)
- AC50 [12]: 3.15 µM (active)
- AC50 [13]: 3.36 µM (active)

SMILES: Cc1cccc(/C=C\c2nc(O)c3ccccc3n2)c1
- EC50 [14]: > 67.5 µM (inactive)
